Experimental data taken from patent US7029915B2, “Method for differentiating rat hepatic stem cells to insulin-producing cells” (University of Florida Research Foundation, Inc., priority 2002, dated 2006).

Experiments:
hepatic stem cells = assay: Morphology of spheroid cell clusters in high-glucose hepatic stem cell cultures; format: cell-based, rat; details: five to seven days in 10 mM nicotinamide, high glucose (23 mM) culture
Description: To induce trans-differentiation, the cells were replated and cultured in RPMI 1640 medium supplemented with 10% FCS and 17.5 mM (23 mM final concentration) glucose. After about two months, scattered small spheroid cell clusters began to form on top of the confluent cell monolayer. Individual spheroids from these cell cultures were selected for clonal passage and were subjected several times to the high glucose (23 mM) culturing process described above. The resultant cells reached confluence, and by day 14 formed additional clusters when maintained under the high glucose conditions. […] Multiple clusters also became connected by duct-like structures.

[1] = test system: trans-differentiated hepatic stem cells; assay: Insulin content and secretion by immunoprecipitation and Western blotting; format: cell-based, rat
Description: Measurement of insulin content and secretion by immunoprecipitation and Western blotting. Confluent cultures of trans-differentiated hepatic stem cells were maintained in RPMI 1640 plus 10% fetal calf serum in the presence or absence of 10 mM nicotinamide for 7 days. The cells were then switched to serum-free medium containing 0.5% BSA for 5 hrs, washed twice with serum-free medium, then stimulated with an additional 17.5 mM glucose for 2 hrs. The culture medium was collected and stored at −70° C. for assay of secreted insulin. Intracellular insulin was extracted with lysis buffer. The presence of insulin in the culture media and cell lysates was determined by immunoprecipitation with anti-rabbit-insulin polyclonal antibodies (Santa Cruz Biotechnology), followed by separation of the precipitated material by 18% SDS-PAGE, transfer to nylon membrane, and blotting with anti-insulin antibodies as described (Yang, et al., J. Biol. Chem. 269:7156–7162, 1994). Cell lysates (150 μg) or culture media (1 ml) from each culture were used for the immunoprecipitation. Normal rabbit serum was used as primary antibody control, and culture medium containing 0.5% BSA was used as a control for secreted insulin measurements. […] Insulin content in cells and in the media was determined by pooling cell lysates and culture medium from three separate cultures.

In the case of NC(=O)c1cccnc1 [nicotinamide], the “number and dimension of spheroid cell clusters” value (hepatic stem cells) is reported as “markedly increased”, the “increase of insulin in cell lysates versus untreated cells (densitometric analysis)” value ([1]; 10 mM nicotinamide for 7 days before stimulation with additional 17.5 mM glucose for 2 hrs, cell lysates) is reported as 3.4 times and the “levels of insulin detected in cell lysates and secreted into culture medium” value ([1]; growth in nicotinamide before glucose stimulation, Western blot, FIG. 2) is reported as “increased”.
